Measurements taken from paper PMC9611297, “Design, Synthesis, Anticancer Activity and Molecular Docking of New 1,2,3-Triazole-Based Glycosides Bearing 1,3,4-Thiadiazolyl, Indolyl and Arylacetamide Scaffolds” (Molecules, 2022).
Where two headings read alike, the source gives them in different places.

Experiments:
[1] = system: MCF-7 (human breast adenocarcinoma) cell line; assay: MTT cytotoxicity assay, MCF-7; conditions: read-out: IC50 (µM) ± SD MCF-7
Description: (§3) This test is based on MTT cleavage by mitochondrial dehydrogenases from viable cells [50, 51, 52]. […] After incubation, the media were removed, and 40 µL of MTT (2.5 mg mL^−1) was added to each well. Incubation was resumed for an additional 4 h. The purple formazan dye crystals were solubilized with 200 µL DMSO. Absorbance was measured at 590 nm in a Spectra Max Paradigm Multi-Mode microplate reader (Molecular Devices, LLC, San Jose, CA, USA). Relative cell viability was expressed as the mean percentage of viable cells compared to the untreated control cells.
(§4) All experiments were conducted in triplicate and repeated on three different days. All values are reported as mean ± SD. IC50 values were determined by SPSS Inc. probit analysis (IBM Corp., Armonk, NY, USA).

[2] = system: HCT-116 (human colorectal carcinoma) cell line; assay: MTT cytotoxicity assay, HCT-116; conditions: read-out: IC50 (µM) ± SD HCT-116
Description: as §3, §4

EGFR^T790M = EGFR^T790M (Homo sapiens, UniProt P00533, T790M); assay: EGFR^T790M kinase inhibition (HTRF assay); format: biochemical; conditions: ATP 1.65 μM, 30 min, room temperature, read-out: IC50 (Mean ± SEM) (µM) EGFR^T790M
Description: (§1) A homogeneous time-resolved fluorescence (HTRF) assay was applied in this test (Sigma). […] The assay was conducted for 30 min at room temperature. The reaction was stopped by the addition of detection reagents that contained EDTA. […] Three independent experiments were performed for each concentration.

MCF-7 cells [3] = assay: Annexin V/PI apoptosis detection by flow cytometry; format: cell-based, human; conditions: MCF-7, 24 h, at IC50 concentration (7: 0.5 μM; 15: 0.6 μM); for Apoptosis Late: control 0.28%; for Apoptosis Early: control 0.46%; for Necrosis: control 1.25%; for Apoptosis Total: control 1.99
Description: The proportion of late apoptosis obtained with compounds 7 and 15 was higher than that of the early phase, leading to the induction of apoptosis and confirming the effectiveness of these derivatives in cancer therapy.
(§2) Apoptosis investigation and cell cycle analysis were performed by flow cytometry. MCF-7 cells were seeded at 8 × 10^4 and incubated at 37 °C in 5% CO2 overnight. After treatment with the tested compounds 7 and 15 for 24 h, cell pellets were collected and centrifuged (300 g, 5 min). For cell cycle analysis, cell pellets were fixed with 70% ethanol on ice for 15 min and collected again. The pellets were incubated with propidium iodide (PI) staining solution at room temperature for 1 h and analyzed with a Gallios flow cytometer (Beckman Coulter, Brea, CA, USA). Apoptosis detection was carried out by the FITC AnnexinV/PI commercial kit (Becton Dickenson, Franklin Lakes, NJ, USA) following the manufacturer’s protocol. The samples were analyzed by fluorescence-activated cell sorting (FACS) with a Gallios flow cytometer (Beckman Coulter, Brea, CA, USA) within 1 h after staining. Data were analyzed using Kaluza v 1.2 (Beckman Coulter).

EGFR^WT = EGFR^WT (Homo sapiens, UniProt P00533); assay: EGFR^WT kinase inhibition (HTRF assay); format: biochemical; conditions: ATP 1.65 μM, 30 min, room temperature, read-out: IC50 (Mean ± SEM) (µM) EGFR^WT
Description: as §1

HER-2 = HER-2 (Homo sapiens, UniProt P04626); assay: HER-2 kinase inhibition (HTRF assay); format: biochemical; conditions: ATP 1.65 μM, 30 min, room temperature, read-out: IC50 (Mean ± SEM) (µM) HER-2 (converted)
Description: as §1

MCF-7 cells [4] = assay: Cell cycle analysis (PI staining, flow cytometry); format: cell-based, human; conditions: MCF-7, 24 h treatment; for cell accumulation at sub-G1 phase (%pre G): untreated 1.99%; for cell accumulation at S phase (%DIP S): untreated 33.85%
Description: Moreover, the cessation of cell division at cell cycle checkpoints is considered one of the main roles of anticancer therapeutics.
as §2

[5] = MTT assay, 48 h incubation, mean ± SD

Chain of EGFR^T790M (P00533 25-1210 T790M): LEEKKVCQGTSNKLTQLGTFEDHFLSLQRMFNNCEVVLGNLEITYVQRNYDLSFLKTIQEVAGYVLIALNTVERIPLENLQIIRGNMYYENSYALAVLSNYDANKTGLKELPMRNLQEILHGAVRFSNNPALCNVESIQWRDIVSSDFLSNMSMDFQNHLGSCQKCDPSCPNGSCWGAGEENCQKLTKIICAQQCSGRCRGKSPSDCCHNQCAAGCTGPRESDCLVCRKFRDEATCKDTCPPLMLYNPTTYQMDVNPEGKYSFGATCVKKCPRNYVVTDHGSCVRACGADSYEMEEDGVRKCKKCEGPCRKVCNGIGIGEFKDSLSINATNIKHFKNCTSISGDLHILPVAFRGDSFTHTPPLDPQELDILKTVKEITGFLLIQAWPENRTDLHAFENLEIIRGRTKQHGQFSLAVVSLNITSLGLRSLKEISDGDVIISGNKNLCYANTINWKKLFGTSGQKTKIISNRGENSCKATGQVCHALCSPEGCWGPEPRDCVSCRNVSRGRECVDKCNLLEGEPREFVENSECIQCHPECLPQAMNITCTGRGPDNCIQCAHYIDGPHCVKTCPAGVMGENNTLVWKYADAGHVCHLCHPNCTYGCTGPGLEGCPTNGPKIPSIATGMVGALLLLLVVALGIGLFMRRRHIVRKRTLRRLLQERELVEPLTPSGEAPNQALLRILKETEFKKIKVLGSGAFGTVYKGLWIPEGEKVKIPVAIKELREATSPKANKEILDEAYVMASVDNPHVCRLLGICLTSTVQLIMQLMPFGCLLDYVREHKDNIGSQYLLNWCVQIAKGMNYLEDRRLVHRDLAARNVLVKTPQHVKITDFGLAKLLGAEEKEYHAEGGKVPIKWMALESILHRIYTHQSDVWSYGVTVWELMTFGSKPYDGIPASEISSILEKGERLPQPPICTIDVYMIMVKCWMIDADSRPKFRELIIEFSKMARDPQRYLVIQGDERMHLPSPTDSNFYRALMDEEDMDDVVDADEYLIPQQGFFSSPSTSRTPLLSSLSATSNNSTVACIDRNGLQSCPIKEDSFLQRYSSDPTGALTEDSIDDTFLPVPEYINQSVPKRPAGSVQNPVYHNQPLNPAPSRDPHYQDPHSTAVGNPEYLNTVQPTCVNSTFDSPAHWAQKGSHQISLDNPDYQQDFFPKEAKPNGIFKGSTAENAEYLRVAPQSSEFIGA
Chain of HER-2 (P04626 23-1255): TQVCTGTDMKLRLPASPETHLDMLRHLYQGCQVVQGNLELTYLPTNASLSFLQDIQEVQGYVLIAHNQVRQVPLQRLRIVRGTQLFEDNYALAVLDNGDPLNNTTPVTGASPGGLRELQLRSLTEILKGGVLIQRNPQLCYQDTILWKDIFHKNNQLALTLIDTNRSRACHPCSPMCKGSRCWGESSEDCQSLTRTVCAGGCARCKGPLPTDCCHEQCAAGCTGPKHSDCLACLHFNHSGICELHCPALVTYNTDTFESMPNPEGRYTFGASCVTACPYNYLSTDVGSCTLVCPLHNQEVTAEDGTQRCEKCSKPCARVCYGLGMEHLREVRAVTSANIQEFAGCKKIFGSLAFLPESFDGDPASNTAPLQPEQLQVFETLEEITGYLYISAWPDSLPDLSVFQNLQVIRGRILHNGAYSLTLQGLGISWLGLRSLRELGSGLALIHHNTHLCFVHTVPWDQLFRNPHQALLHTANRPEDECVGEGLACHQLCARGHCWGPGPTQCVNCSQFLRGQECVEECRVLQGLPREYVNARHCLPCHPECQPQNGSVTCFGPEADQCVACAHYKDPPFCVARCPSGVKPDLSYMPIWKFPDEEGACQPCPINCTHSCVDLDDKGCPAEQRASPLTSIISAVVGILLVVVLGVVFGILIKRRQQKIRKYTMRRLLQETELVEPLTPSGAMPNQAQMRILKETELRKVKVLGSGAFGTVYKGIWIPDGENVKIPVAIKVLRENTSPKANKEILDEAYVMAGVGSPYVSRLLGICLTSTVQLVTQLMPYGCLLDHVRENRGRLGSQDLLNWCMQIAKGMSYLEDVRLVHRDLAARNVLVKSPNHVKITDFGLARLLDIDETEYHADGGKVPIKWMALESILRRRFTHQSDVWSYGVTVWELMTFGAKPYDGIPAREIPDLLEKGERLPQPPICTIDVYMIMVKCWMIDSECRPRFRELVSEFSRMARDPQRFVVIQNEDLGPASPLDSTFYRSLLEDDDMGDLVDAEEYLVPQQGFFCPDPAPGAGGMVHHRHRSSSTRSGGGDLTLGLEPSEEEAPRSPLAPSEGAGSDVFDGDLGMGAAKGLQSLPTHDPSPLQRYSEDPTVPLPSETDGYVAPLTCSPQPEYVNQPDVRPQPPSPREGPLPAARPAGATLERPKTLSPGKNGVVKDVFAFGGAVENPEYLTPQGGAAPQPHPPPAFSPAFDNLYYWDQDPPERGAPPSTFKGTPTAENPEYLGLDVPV
Chain of EGFR^WT (P00533 25-1210): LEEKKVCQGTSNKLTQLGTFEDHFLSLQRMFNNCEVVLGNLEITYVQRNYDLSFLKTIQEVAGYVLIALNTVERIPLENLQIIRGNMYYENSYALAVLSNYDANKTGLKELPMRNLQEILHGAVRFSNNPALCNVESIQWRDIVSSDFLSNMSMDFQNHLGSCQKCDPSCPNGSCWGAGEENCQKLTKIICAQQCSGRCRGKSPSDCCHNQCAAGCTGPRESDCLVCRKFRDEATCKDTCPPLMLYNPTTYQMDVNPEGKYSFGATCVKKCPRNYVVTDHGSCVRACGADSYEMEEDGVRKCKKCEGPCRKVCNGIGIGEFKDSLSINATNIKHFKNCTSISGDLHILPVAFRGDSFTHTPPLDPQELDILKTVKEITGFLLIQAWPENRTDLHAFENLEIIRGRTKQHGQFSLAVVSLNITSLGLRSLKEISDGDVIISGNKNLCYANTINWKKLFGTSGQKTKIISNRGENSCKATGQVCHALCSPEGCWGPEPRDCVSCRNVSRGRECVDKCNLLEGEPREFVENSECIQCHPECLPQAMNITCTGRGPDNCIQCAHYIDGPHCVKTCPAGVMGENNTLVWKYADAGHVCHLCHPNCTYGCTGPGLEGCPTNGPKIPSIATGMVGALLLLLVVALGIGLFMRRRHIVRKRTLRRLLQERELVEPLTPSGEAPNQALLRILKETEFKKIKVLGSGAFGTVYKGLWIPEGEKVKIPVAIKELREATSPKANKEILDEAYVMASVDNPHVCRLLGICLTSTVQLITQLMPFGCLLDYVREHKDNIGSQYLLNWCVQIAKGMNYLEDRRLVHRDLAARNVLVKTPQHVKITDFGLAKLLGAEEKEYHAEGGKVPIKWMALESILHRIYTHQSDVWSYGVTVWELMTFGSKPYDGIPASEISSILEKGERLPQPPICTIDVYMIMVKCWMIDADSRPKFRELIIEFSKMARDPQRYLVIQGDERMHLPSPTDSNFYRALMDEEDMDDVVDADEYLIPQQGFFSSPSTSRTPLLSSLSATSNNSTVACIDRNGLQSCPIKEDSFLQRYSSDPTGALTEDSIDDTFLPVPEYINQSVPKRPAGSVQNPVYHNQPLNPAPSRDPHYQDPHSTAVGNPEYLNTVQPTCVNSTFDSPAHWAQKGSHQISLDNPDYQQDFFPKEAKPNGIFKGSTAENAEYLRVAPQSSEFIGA

| SMILES | IC50 ([1]; Homo sapiens, MCF7, 48 h) | IC50 ([2]; Homo sapiens, HCT-116, 48 h) | melting point | further results |
| --- | --- | --- | --- | --- |
| CCn1cc(/C=N\c2nnc(S)s2)c2ccccc21 [Compound 1] | 18.1 ± 0.2 µM | 46.9 ± 0.5 µM | – | – |
| CCn1cc(C=Nc2nnc(SCCBr)s2)c2ccccc21 [Compound 2, N-(5-((2-Bromoethyl)thio)-1,3,4-thiadiazol-2-yl)-1-(1-ethyl-1H-indol-3-yl)methanimine] | – | – | 90 to 92 °C | IC50 [1, 5]: 14.1 ± 0.3 µM; IC50 [2, 5]: 52.7 ± 0.6 µM |
| CCn1cc(C=Nc2nnc(SCCN=[N+]=[N-])s2)c2ccccc21 [Compound 3, N-(5-((2-Azidoethyl)thio)-1,3,4-thiadiazol-2-yl)-1-(1-ethyl-1H-indol-3-yl)methanimine] | 1.1 ± 0.1 µM | 30.8 ± 0.4 µM | 101 to 102 °C | – |
| CCn1cc(C=Nc2nnc(SCCn3cc(CO[C@@H]4O[C@H](COC(C)=O)[C@@H](OC(C)=O)[C@H](OC(C)=O)[C@H]4OC(C)=O)nn3)s2)c2ccccc21 [Compound 5, 1-(1-Ethyl-1H-indol-3-yl)-N-(5-((2-(4-({[2,3,4,6-tetra-O-acetyl-β-D-glucopyranosyl]oxy}methyl)-1H-1,2,3-triazol-1-yl)ethyl)thio)-1,3,4-thiadiazol-2-yl)methanimine] | 13.9 ± 0.2 µM | 22.6 ± 0.2 µM | 131 to 132 °C | – |
| CCn1cc(C=Nc2nnc(SCCn3cc(CO[C@@H]4OC[C@@H](OC(C)=O)[C@H](OC(C)=O)[C@H]4OC(C)=O)nn3)s2)c2ccccc21 [Compound 6, 1-(1-Ethyl-1H-indol-3-yl)-N-(5-((2-(4-({[2,3,4-tri-O-acetyl-β-D-xylopyranos-yl]oxy}methyl)-1H-1,2,3-triazol-1-yl)ethyl)thio)-1,3,4-thiadiazol-2-yl)methanimine] | 10.8 ± 1.5 µM | 20.8 ± 0.2 µM | 136 to 138 °C | – |
| CCn1cc(C=Nc2nnc(SCCn3cc(CO[C@@H]4O[C@H](CO)[C@@H](O)[C@H](O)[C@H]4O)nn3)s2)c2ccccc21 [Compound 7, 1-(1-Ethyl-1H-indol-3-yl)-N-(5-((2-(4-({[β-D-glucopyranosyl]oxy}methyl)-1H-1,2,3-triazol-1-yl)ethyl)thio)-1,3,4-thiadiazol-2-yl)methanimine] | 0.5 µM | 15.5 ± 0.2 µM | 210 to 213 °C | IC50 (EGFR^T790M): 1.12 ± 0.55 µM; Apoptosis Late (MCF-7 cells [3]): 18.81%; Apoptosis Early (MCF-7 cells [3]): 4.39%; Necrosis (MCF-7 cells [3]): 11.41%; Apoptosis Total (MCF-7 cells [3]): 34.61%; IC50 (EGFR^WT): 0.3 ± 0.01 µM; IC50 (HER-2): 2.25 ± 0.3 µM; cell accumulation at sub-G1 phase (%pre G) (MCF-7 cells [4]): 34.61%; cell accumulation at S phase (%DIP S) (MCF-7 cells [4]): 43.51% |
| CCn1cc(C=Nc2nnc(SCCn3cc(CO[C@@H]4OC[C@@H](O)[C@H](O)[C@H]4O)nn3)s2)c2ccccc21 [Compound 8, 1-(1-Ethyl-1H-indol-3-yl)-N-(5-((2-(4-({[β-D-Xylopyranosyl]oxy}methyl)-1H-1,2,3-triazol-1-yl)ethyl)thio)-1,3,4-thiadiazol-2-yl)methanimine] | 4.2 ± 0.1 µM | 4.6 ± 0.1 µM | 203 to 204 °C | IC50 (EGFR^T790M): 1.95 ± 0.02 µM; IC50 (EGFR^WT): 0.38 ± 0.05 µM; IC50 (HER-2): 2.77 ± 0.13 µM |
| Cc1ccc(NC(=O)CN=[N+]=[N-])cc1 [Compound 9a] | 24.1 ± 0.3 µM | 42.3 ± 0.6 µM | – | – |
| [N-]=[N+]=NCC(=O)Nc1ccc(F)cc1 [Compound 9b] | 26.4 ± 0.3 µM | 33.3 ± 0.4 µM | – | – |
| CC(=O)O[C@@H]1[C@@H](OC(C)=O)[C@H](OCc2cn(CC(=O)Nc3ccc(C)cc3)nn2)OC[C@H]1OC(C)=O [Compound 11, 2-(4-({[2,3,4-Tri-O-acetyl-β-D-xylopyranosyl]oxy}methyl)-1H-1,2,3-triazol-1-yl)-N-(p-tolyl)acetamide] | 0.8 µM | 15.4 ± 0.2 µM | 95 to 96 °C | IC50 (EGFR^T790M): 11.8 ± 0.05 µM; IC50 (EGFR^WT): 6.45 ± 0.1 µM; IC50 (HER-2): 8.6 ± 0.2 µM |
| CC(=O)OC[C@H]1O[C@@H](OCc2cn(CC(=O)Nc3ccc(C)cc3)nn2)[C@H](OC(C)=O)[C@@H](OC(C)=O)[C@H]1OC(C)=O [Compound 12, 2-(4-({[2,3,4,6-Tetra-O-acetyl-β-D-galactopyranosyl]oxy}methyl)-1H-1,2,3-triazol-1-yl)-N-(p-tolyl)acetamide] | 5.7 ± 0.1 µM | 2.2 ± 0.1 µM | 98 to 99 °C | IC50 (EGFR^T790M): 15.2 ± 0.2 µM; IC50 (EGFR^WT): 12.7 ± 0.15 µM; IC50 (HER-2): 18.4 µM |
| CC(=O)O[C@@H]1[C@@H](OC(C)=O)[C@H](OCc2cn(CC(=O)Nc3ccc(F)cc3)nn2)OC[C@H]1OC(C)=O [Compound 13, 2-(4-({[2,3,4-Tri-O-acetyl-β-D-xylopyranosyl]oxy}methyl)-1H-1,2,3-triazol-1-yl)-N-(4-fluorophenyl)acetamide] | 34.4 ± 0.4 µM | 38.2 ± 0.5 µM | 142 to 144 °C | – |
| CC(=O)OC[C@H]1O[C@@H](OCc2cn(CC(=O)Nc3ccc(F)cc3)nn2)[C@H](OC(C)=O)[C@@H](OC(C)=O)[C@H]1OC(C)=O [Compound 14, 2-(4-({[2,3,4,6-Tetra-O-acetyl-β-D-galactopyranosyl]oxy}methyl)-1H-1,2,3-triazol-1-yl)-N-(4-fluorophenyl)acetamide] | 35.3 ± 0.3 µM | 33.8 ± 0.3 µM | – | – |
| Cc1ccc(NC(=O)Cn2cc(CO[C@@H]3OC[C@@H](O)[C@H](O)[C@H]3O)nn2)cc1 [Compound 15, 2-(4-({[β-D-Xylopyranosyl]oxy}methyl)-1H-1,2,3-triazol-1-yl)-N-(p-tolyl)acetamide] | 0.6 µM | 11.4 ± 0.3 µM | 193 to 194 °C | IC50 (EGFR^T790M): 1.5 ± 0.11 µM; Apoptosis Late (MCF-7 cells [3]): 25.48%; Apoptosis Early (MCF-7 cells [3]): 2.69%; Necrosis (MCF-7 cells [3]): 14.28%; Apoptosis Total (MCF-7 cells [3]): 42.45%; IC50 (EGFR^WT): 0.21 ± 0.05 µM; IC50 (HER-2): 2.18 ± 0.42 µM; cell accumulation at sub-G1 phase (%pre G) (MCF-7 cells [4]): 42.45%; cell accumulation at S phase (%DIP S) (MCF-7 cells [4]): 52.08% |
| Cc1ccc(NC(=O)Cn2cc(CO[C@@H]3O[C@H](CO)[C@H](O)[C@H](O)[C@H]3O)nn2)cc1 [Compound 16, 2-(4-({[β-D-Galactopyranosyl]oxy}methyl)-1H-1,2,3-triazol-1-yl)-N-(p-tolyl)acetamide] | 20.3 ± 0.9 µM | 35.7 ± 0.4 µM | 199 to 200 °C | – |
| O=C(Cn1cc(CO[C@@H]2OC[C@@H](O)[C@H](O)[C@H]2O)nn1)Nc1ccc(F)cc1 [Compound 17, 2-(4-({[β-D-Xylopyranosyl]oxy}methyl)-1H-1,2,3-triazol-1-yl)-N-(4-fluorophenyl)acetamide] | 30.1 ± 0.4 µM | 26.5 ± 0.3 µM | 197 to 198 °C | – |
| O=C(Cn1cc(CO[C@@H]2O[C@H](CO)[C@H](O)[C@H](O)[C@H]2O)nn1)Nc1ccc(F)cc1 [Compound 18, 2-(4-({[β-D-Galactopyranosyl]oxy}methyl)-1H-1,2,3-triazol-1-yl)-N-(4-fluorophenyl)acetamide] | 31.6 ± 0.5 µM | 28.8 ± 0.1 µM | – | – |
| COc1cccc2c1C(=O)c1c(O)c3c(c(O)c1C2=O)C[C@@](O)(C(=O)CO)C[C@@H]3O[C@H]1C[C@H](N)[C@H](O)[C@H](C)O1 [Doxorubicin, reference compound] | 9.4 ± 0.1 µM | 12.1 ± 0.2 µM | – | – |
